ChEMBL document CHEMBL1201862, “PubChem BioAssay data set” (2004)
Calls of active or inactive are those of the source.

Experiments:
[1] = target: T1, RNA-binding protein pos-1 (Caenorhabditis elegans, UniProt G5EF15); assay: disruptors of C. elegans POS-1 RNA interaction – biochemical, fluorescence polarization, dose response (AID 1964);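 further: purified POS-1 fused to maltose binding protein made in E. coli; potency of compounds blocking POS-1 binding to fluorescent RNA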
T1 sequence (G5EF15 whole entry): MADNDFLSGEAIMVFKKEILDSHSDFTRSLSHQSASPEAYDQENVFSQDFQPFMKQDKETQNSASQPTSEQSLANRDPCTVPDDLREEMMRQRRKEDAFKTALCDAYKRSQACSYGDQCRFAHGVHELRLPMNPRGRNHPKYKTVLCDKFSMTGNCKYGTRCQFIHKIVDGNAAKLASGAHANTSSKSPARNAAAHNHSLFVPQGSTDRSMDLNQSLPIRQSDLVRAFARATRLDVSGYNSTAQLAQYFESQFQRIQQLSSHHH

[2] = target: T2, Zinc finger protein mex-5 (Caenorhabditis elegans, UniProt Q9XUB2); assay: potency of MEX-5 RNA-binding blockers – biochemical, C. elegans, fluorescence polarization, dose response (AID 1960)
T2 sequence (Q9XUB2 whole entry): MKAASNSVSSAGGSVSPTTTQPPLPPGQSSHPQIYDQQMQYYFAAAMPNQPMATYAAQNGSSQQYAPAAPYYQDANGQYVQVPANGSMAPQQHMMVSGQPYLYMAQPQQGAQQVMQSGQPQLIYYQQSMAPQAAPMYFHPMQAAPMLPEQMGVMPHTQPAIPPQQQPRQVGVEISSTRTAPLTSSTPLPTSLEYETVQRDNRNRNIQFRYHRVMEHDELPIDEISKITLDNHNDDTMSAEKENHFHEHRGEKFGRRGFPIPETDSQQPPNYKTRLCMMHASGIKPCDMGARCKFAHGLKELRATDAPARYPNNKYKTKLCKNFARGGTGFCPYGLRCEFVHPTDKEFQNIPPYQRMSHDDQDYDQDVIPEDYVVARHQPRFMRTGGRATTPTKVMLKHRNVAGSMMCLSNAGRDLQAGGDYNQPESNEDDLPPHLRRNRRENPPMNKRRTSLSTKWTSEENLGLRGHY

[3] = target: Glucose-6-phosphate 1-dehydrogenase (Homo sapiens, UniProt P11413); assay: inhibition of Homo sapiens G6PD, dose series – biochemical, fluorescence, selectivity assay for P. falciparum G6PD inhibitor project, dose response (AID 504792); type: functional
Glucose-6-phosphate 1-dehydrogenase, sequence (P11413 whole entry): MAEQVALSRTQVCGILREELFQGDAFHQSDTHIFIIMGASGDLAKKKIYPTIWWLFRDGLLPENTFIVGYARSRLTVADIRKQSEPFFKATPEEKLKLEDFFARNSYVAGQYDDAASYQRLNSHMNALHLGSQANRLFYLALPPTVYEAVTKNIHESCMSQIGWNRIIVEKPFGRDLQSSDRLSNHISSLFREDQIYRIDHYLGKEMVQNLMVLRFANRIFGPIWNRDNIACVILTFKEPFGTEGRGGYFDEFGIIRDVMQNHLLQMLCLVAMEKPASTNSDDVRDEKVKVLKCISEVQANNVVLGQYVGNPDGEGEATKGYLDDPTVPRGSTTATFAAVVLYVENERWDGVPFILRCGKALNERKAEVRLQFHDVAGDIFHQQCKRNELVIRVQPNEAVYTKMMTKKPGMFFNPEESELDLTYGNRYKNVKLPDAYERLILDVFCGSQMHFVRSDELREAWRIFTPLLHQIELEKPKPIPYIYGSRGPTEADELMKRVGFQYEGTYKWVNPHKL

[4] = target: T3, Hexokinase HKDC1 (Homo sapiens, UniProt Q2TB90); assay: inhibition of HKDC1 glucose phosphorylation – biochemical, W721R variant, dose response (AID 504729); type: functional
T3 sequence (Q2TB90 whole entry): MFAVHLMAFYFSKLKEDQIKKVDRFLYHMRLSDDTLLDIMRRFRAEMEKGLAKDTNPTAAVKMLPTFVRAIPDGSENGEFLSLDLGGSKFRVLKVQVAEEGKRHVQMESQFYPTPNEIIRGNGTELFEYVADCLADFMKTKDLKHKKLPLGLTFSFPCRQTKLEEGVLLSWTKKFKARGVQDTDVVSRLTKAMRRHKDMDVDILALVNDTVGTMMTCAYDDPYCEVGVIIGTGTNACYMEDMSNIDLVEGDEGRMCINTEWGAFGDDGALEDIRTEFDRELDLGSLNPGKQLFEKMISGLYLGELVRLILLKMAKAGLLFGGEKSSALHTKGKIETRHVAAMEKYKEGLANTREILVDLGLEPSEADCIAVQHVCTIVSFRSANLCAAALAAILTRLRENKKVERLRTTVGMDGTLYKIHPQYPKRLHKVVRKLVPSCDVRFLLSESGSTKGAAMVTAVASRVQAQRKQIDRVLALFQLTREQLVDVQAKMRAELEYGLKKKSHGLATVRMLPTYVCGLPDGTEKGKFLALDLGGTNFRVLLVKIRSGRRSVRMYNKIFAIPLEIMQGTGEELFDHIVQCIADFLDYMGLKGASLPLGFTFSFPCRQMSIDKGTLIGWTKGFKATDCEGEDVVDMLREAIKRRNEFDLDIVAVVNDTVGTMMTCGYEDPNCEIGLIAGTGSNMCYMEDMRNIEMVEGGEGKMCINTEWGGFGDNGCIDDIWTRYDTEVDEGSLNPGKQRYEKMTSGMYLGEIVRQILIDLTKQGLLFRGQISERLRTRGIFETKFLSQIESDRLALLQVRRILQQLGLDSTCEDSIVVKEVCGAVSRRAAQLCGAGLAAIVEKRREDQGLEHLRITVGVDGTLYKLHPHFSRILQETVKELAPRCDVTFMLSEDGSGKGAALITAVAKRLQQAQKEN

[5] = target: T4, Polyadenylate-binding protein 1 (Homo sapiens, UniProt P11940); assay: MLLE binding blockers, Cy5 peptide tracer – biochemical, fluorescence polarization, Cy5-PAM2 peptide, secondary, miRNA deadenylation inhibitor project, dose response (AID 602260); type: functional; details: read-out: IC50_Mean
T4 sequence (P11940 whole entry, the tested form may be a part): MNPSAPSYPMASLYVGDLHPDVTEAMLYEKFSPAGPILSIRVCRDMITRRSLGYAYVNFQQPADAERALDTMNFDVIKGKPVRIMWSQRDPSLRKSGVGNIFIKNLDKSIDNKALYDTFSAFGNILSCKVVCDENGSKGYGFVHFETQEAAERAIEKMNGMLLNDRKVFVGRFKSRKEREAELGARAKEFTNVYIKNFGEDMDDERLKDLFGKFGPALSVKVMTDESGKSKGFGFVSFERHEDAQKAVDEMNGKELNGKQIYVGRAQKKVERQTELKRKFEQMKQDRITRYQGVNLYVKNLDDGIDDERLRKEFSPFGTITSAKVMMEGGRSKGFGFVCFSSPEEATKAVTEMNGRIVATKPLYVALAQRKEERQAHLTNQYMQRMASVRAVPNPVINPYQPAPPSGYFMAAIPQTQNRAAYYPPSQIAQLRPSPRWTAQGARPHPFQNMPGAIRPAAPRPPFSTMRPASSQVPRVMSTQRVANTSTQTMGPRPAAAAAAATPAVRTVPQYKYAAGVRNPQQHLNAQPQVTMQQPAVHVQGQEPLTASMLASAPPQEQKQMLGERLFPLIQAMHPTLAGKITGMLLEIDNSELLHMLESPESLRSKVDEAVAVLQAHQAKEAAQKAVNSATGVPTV

[6] = target: T4, Polyadenylate-binding protein 1; assay: MLLE domain peptide-binding blockers, IC50 – biochemical, fluorescence polarization, FITC-PAM2 peptide, dose response (AID 602259); type: functional; details: read-out: IC50_Mean
[7] = target: Voltage-gated N-type calcium channel alpha-1B subunit/Amyloid beta A4 precursor protein-binding family A member 1 (Homo sapiens, UniProt Q00975+Q02410); assay: disruptors of Mint-PDZ/N-type channel peptide interaction – biochemical, HTRF, set 2, SAR follow-up (AID 434980); type: functional
[8] = target: Bcl-2-like protein 10 (Homo sapiens, UniProt Q9HD36); assay: Bcl-B/TR3 peptide binding disruption – biochemical, fluorescence polarization, FITC-TR3 peptide, selectivity assay for Bfl-1 inhibitor project, primary screen (AID 748);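 further: fluorescence polarization from a fluorescein-labelled TR3 peptide binding purified Bcl-B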
Bcl-2-like protein 10, sequence (Q9HD36 whole entry): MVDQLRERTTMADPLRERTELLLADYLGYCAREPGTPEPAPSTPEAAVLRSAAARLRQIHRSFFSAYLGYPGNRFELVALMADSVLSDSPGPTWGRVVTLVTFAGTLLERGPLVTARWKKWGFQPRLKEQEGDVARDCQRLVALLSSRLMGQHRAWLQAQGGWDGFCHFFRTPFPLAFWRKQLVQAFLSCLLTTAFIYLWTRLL

[9] = target: T5, G-protein coupled receptor 35 (Homo sapiens, UniProt Q9HC97); assay: inhibition of zaprinast-stimulated GPR35 beta-arrestin translocation – imaging, U2OS, beta-arrestin-GFP, zaprinast agonist, primary screen (AID 2058); type: functional;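 further: antagonist potency meaning inhibition of agonist-induced arrestin redistribution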
T5 sequence (Q9HC97 whole entry): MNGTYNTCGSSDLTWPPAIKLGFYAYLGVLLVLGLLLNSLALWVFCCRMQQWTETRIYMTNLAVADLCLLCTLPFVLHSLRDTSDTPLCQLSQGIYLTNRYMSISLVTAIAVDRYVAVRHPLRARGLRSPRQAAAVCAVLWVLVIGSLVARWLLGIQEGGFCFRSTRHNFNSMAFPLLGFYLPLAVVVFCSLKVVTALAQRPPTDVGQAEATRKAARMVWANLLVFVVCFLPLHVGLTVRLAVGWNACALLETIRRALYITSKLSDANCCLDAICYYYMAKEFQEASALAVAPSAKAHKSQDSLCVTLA

[10] = target: T5, G-protein coupled receptor 35; assay: SAR Analysis for the identification of Selective Antagonists of ERK1/2 Activity in GPR35-Overexpressing U2OS Cells. [Related pubchem assays: 2079, 2058 ]; type: functional, cell-based
[11] = Trypanosoma cruzi growth suppression in host cells – NIH3T3 host cells, beta-gal luminescence, confirmation (AID 2044); type: functional, cell-based;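 further: intracellular parasites grown in NIH/3T3 mouse fibroblasts as host cells; luminescent beta-galactosidase reporter signal from transgenic T. cruzi replicating inside host cells; inhibitors lower the luminescence signal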
[12] = NIH3T3 cell viability loss – ATP luminescence, mouse fibroblasts, counter-screen, dose response (AID 2010); type: functional, cell-based;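 further: cells exposed to compound for about 90 hours before reading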
[13] = target: G-protein coupled receptor 55 (Homo sapiens, UniProt Q9Y2T6); assay: blockers of GPR55 signalling, imaged – imaging, image-based, counter-screen for GPR35 antagonist project, SAR follow-up (AID 2397); type: functional
G-protein coupled receptor 55, sequence (Q9Y2T6 whole entry): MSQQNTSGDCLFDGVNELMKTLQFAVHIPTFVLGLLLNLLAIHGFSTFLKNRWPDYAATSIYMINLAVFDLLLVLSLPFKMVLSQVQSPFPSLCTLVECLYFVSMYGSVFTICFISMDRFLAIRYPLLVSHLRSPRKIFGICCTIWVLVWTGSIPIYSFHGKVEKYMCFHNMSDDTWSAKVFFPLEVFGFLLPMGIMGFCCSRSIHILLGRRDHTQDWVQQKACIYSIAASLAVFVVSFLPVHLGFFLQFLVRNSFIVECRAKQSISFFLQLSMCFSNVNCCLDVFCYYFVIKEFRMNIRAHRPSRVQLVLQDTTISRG

[14] = Cytotoxicity screening for potential Inhibitors of Bacterial Capsule Biogenesis. [Related pubchem assays (depositor defined):AID488970]; type: functional
[15] = target: T6, Scavenger receptor class B member 1 (Mus musculus, UniProt Q61009); assay: mouse SR-BI DiI-HDL uptake blockers – ldlA[mSR-BI] cells, fluorescence, cherry pick, dose response (AID 493194); type: functional, cell-based;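 further: cellular uptake of fluorescent DiI-labeled HDL measured as cell fluorescence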
T6 sequence (Q61009 whole entry): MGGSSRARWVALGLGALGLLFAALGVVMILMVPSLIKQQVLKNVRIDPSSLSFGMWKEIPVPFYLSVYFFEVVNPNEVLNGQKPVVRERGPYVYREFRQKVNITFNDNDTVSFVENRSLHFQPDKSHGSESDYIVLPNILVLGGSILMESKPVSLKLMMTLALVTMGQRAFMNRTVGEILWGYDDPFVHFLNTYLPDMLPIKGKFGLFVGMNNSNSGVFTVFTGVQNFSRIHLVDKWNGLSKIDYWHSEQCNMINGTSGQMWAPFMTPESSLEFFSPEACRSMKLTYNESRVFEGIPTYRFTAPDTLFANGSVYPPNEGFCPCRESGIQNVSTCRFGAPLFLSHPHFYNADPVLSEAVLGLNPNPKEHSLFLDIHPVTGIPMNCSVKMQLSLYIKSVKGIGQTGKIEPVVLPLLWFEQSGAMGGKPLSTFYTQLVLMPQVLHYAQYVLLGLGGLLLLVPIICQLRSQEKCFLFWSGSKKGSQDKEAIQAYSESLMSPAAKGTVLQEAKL

[16] = target: T7, Nucleotide-binding oligomerization domain-containing protein 2 (Homo sapiens, UniProt Q9HC29); assay: inhibition of NOD2-driven NF-kB reporter – cell-based, luminescence, uHTS, HEK293 (AID 1566); type: functional
T7 sequence (Q9HC29 whole entry, the tested form may be a part): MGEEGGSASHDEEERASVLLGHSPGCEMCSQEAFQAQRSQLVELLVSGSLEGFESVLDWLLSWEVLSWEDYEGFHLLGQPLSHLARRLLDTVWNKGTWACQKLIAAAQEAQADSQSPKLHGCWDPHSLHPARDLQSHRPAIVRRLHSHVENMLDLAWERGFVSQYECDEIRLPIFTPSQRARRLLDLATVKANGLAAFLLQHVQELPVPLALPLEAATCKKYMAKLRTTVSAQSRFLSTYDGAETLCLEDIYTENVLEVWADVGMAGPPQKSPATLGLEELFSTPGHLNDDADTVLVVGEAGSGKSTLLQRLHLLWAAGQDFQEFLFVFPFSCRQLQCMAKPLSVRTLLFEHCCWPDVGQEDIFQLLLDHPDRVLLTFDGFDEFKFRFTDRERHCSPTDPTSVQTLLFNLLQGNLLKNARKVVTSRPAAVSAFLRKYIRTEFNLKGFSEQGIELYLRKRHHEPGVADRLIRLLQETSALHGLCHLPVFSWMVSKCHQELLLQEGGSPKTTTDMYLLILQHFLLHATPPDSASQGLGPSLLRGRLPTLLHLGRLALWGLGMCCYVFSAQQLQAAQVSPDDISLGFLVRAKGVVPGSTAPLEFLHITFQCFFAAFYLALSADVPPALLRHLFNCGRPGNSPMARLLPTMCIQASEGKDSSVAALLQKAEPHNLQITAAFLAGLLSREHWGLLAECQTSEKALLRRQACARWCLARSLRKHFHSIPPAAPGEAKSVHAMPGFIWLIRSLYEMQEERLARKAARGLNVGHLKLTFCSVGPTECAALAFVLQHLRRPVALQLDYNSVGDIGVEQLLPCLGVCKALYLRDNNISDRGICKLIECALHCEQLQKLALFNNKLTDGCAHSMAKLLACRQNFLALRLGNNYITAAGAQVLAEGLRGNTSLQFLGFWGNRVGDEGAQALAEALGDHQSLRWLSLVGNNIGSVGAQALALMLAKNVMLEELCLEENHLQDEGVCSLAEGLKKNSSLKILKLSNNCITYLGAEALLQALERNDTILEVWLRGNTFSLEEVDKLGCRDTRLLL

[17] = target: Tumor necrosis factor (Homo sapiens, UniProt P01375); assay: analog potency on TNFa NF-kB signaling – cell-based, revised, SAR follow-up (AID 2337); type: functional
Tumor necrosis factor, sequence (P01375 whole entry, the tested form may be a part): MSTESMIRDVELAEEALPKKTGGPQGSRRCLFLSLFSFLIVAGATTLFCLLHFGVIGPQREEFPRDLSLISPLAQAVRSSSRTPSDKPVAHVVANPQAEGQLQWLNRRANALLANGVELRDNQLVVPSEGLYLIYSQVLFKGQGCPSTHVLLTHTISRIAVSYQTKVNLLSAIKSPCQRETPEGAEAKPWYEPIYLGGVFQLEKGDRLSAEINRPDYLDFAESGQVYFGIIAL

[18] = target: Nucleotide-binding oligomerization domain-containing protein 1 (Homo sapiens, UniProt Q9Y239); assay: blockers of NOD1 pathway activity – revised, SAR follow-up (AID 2333); type: functional
[19] = target: T8, Short transient receptor potential channel 4 (Mus musculus, UniProt Q9QUQ5); assay: block of DAMGO-driven TRPC4 calcium entry – cell-based, HEK293 TRPC4/mu-opioid, Fluo-4 calcium, dose response (AID 434942); type: functional;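 further: potency of inhibitors blocking the TRPC4 calcium response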
T8 sequence (Q9QUQ5 whole entry): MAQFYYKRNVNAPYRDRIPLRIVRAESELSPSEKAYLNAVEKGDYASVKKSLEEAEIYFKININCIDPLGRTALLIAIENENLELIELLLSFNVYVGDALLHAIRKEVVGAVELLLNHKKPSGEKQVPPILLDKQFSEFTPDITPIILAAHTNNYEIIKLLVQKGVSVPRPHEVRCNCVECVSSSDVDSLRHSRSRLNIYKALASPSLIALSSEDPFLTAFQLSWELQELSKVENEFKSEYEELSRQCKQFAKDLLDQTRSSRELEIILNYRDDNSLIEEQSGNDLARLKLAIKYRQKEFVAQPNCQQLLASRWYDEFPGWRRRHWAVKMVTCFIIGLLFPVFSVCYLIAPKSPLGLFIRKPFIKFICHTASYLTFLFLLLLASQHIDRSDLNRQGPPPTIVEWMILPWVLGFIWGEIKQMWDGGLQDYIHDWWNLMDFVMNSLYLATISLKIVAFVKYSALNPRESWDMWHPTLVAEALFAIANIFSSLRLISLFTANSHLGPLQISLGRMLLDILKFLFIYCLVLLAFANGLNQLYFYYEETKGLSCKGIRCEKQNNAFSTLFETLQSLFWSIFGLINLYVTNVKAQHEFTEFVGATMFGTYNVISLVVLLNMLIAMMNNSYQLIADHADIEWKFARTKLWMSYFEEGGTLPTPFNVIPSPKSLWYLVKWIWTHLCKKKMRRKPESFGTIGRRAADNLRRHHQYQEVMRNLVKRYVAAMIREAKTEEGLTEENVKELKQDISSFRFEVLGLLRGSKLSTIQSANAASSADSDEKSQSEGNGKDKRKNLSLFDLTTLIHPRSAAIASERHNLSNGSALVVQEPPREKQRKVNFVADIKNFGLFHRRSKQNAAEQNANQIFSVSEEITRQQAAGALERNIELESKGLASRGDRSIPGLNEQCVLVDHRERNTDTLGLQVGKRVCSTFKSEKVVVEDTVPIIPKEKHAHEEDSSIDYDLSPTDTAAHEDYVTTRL

[20] = target: T7, Nucleotide-binding oligomerization domain-containing protein 2; assay: PubChem AID 2334; type: functional
[21] = target: T9, Cysteine protease ATG4B (Homo sapiens, UniProt Q9Y4P1); type: functional;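 further: Fluorescence-based dose-response confirmation assay measuring inhibition of ATG4B activity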
T9 sequence (Q9Y4P1 whole entry): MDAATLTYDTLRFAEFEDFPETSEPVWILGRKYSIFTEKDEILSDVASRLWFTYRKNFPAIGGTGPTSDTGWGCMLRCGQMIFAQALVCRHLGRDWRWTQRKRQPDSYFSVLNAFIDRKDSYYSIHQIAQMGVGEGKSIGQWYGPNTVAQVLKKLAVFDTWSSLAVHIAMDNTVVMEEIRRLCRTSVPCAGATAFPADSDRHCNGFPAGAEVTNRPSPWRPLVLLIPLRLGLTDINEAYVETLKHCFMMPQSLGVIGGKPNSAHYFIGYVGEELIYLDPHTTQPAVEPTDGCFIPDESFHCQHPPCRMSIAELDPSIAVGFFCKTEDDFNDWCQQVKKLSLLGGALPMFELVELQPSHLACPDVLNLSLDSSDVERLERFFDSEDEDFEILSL

[22] = target: Phospholipase A2 (Homo sapiens, UniProt P04054); type: functional;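 further: confirmatory dose-response counterscreen on phospholipase A2, testing hits that came from an ultra-high-throughput screen for ATG4B inhibitors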
Phospholipase A2, sequence (P04054 whole entry): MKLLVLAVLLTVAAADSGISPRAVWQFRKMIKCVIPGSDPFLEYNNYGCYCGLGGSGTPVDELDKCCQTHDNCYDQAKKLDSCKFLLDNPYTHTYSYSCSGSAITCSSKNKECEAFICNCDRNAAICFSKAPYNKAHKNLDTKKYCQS

[23] = target: Luciferin 4-monooxygenase (Photinus pyralis, UniProt P08659); assay: Counter Screen for Luciferase-based Assay Positives. [Related pubchem assays: 620, 618, 411 ]
Luciferin 4-monooxygenase, sequence (P08659 whole entry): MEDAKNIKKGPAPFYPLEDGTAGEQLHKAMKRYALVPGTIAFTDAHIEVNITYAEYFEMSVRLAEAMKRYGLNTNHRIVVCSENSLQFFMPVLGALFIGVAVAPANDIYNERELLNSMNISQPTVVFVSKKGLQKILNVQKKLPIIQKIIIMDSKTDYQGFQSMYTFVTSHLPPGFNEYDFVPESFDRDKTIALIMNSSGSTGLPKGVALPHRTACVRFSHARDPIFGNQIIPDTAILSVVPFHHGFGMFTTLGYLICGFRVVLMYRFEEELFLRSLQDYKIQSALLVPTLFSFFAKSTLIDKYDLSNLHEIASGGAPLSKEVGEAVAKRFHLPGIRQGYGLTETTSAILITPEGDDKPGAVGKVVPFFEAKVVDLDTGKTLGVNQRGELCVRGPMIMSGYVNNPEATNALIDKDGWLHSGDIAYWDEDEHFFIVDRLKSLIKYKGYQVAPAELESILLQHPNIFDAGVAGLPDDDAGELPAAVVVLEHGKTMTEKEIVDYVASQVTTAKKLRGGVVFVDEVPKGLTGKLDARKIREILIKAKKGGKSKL

[24] = HPDE-C7 pancreatic duct cell viability loss – fluorescence, HTS (AID 430); type: functional, cell-based; details: Homo sapiens
[25] = viability loss of HPDE-C7K cells – cell-based, fluorescence, HTS, primary screen (AID 431); type: functional; details: Homo sapiens
[26] = test system: HT-1080; assay: HT1080 cell viability loss – fluorescence readout (AID 620); type: functional, cell-based; details: Homo sapiens
[27] = target: Neurotensin receptor type 1 (Homo sapiens, UniProt P30989); type: functional;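 further: Image-based confirmatory dose-response assay measuring agonist activity at NTR1; NTR1-expressing U2OS osteosarcoma cells imaged for beta-arrestin GFP spot formation; agonist potency where compounds increase beta-arrestin recruitment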
Neurotensin receptor type 1, sequence (P30989 whole entry): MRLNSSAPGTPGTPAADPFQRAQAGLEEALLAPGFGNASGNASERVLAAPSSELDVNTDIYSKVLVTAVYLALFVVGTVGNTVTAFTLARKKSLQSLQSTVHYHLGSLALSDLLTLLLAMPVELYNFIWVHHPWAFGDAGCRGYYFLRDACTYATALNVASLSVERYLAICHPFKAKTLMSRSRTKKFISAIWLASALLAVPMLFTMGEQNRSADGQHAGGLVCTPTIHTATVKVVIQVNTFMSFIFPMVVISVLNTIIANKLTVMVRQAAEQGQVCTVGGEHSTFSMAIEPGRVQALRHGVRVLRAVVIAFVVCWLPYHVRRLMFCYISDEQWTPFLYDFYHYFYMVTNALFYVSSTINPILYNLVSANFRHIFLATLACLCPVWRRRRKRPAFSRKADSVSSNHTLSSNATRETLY

[28] = target: Paired box protein Pax-8 (Homo sapiens, UniProt Q06710); assay: PAX8 transcriptional activity inhibition in RMG-I – RMG-I cells, luciferase, cherry-pick, dose response (AID 687027); type: functional, cell-based;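 further: luciferase reporter driven by Pax8 target thyroperoxidase promoter measured by SteadyGlo luminescence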
Paired box protein Pax-8, sequence (Q06710 whole entry): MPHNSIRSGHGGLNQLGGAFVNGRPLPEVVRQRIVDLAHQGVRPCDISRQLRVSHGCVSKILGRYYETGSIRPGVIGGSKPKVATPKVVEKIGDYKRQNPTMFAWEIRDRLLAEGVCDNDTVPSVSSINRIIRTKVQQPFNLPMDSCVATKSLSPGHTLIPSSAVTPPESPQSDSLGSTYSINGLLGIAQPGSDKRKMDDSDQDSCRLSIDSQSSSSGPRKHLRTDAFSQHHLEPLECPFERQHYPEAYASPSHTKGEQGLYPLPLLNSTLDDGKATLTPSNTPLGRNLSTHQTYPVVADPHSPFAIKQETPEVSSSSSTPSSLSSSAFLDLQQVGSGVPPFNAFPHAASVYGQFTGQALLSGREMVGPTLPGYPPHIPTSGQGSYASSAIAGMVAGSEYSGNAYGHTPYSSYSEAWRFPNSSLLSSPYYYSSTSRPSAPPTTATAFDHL

## CN(C)Cc1cc(O)c(CN(C)C)cc1O
[1]
  EC50: 22.3 µM (inconclusive)
[2]
  EC50: 5.82 µM (active)
[3]
  IC50: 34.7 µM (inactive)
[4]
  IC50: 49.6 µM (inactive)
[5]
  IC50: > 66 µM (inactive)
[6]
  IC50: 50.7 µM (inactive)

## O=C(c1cc(-c2ccco2)nc2ccccc12)N1CCC(N2CCOCC2)CC1
[7]
  IC50: > 56.8 µM (inactive)

## Cc1cc2cc(CN(Cc3ccco3)S(=O)(=O)c3c(C)ccc4nsnc34)c(=O)[nH]c2cc1C
[8]
  IC50: > 100 µM (inactive)

## Cc1ccc(Cn2ncc3c(N4CCN(c5ccccc5C)CC4)ncnc32)cc1
[9]
  IC50: 0.761 µM (active)
[10]
  IC50: 17.7 µM (not active)
[11]
  EC50: 1.6 µM (active)
[12]
  EC50: > 60 µM (not active)
[13]
  IC50: > 32 µM (inactive)

## C=CCOc1ccc(C2c3c(oc4ccccc4c3=O)C(=O)N2CCCN2CCOCC2)cc1 (stereo not drawn)
[14]
  CC50: > 100 µM (active)

## Cc1ccccc1CN1CCN(C(=O)c2ccc(S(=O)(=O)NCc3ccco3)cc2)CC1
[15]
  AC50: 0.092 µM (active)

## Cc1ccc(CSc2nc(-c3ccccc3)c(C#N)c(=O)[nH]2)cc1
[16]
  EC50: 13.2 µM (active)
[17]
  IC50: 8.2 µM (active)
[18]
  IC50: 5.5 µM (active)
[19]
  EC50: 5.31 µM (active)
[20]
  IC50: 6.9 µM (active)
[21]
  IC50: 7.62 µM (active)
[22]
  IC50: 21.2 µM (inactive)

## Cc1ccc(-c2csc3ncnc(Sc4nnc(CN5CCCCCC5=O)o4)c23)cc1
[23]
  EC50: 74 µM (active)
[24]
  EC50: 1.78 µM (active)
[25]
  EC50: 2.1 µM (active)
[26]
  EC50: 20.1 µM (active)
[27]
  EC50: 8.73 µM (active)
[28]
  AC50: 5 µM (active)
